According to patent US20220304945A1, “METHODS OF TREATING METABOLIC SYNDROME RELATED CONDITIONS USING RETINOIC ACID RECEPTOR AGONISTS” (Cornell University, priority 2014, published 2022):

molecular target: T1, RARβ2 (Homo sapiens, UniProt P10826); experiment: not given; set-up: expressed in transfected cells; conditions: from Table 1 and Table 2 of WO2007/009083; cited from earlier work
T1 sequence (P10826 1-448 isoform P10826-2): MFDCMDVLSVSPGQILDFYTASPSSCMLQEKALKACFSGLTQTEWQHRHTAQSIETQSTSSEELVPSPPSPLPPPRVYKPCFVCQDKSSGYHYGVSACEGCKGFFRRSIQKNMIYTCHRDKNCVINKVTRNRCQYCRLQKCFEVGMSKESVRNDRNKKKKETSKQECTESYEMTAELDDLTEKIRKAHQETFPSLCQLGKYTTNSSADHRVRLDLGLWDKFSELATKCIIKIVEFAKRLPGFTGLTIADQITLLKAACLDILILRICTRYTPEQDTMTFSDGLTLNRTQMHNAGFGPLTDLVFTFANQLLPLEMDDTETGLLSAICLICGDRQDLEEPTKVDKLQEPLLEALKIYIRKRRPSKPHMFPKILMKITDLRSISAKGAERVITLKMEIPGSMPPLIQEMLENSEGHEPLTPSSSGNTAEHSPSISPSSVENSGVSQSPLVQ

SMILES | % Eff. | pEC50
CCCCCCCCCc1ccc(-c2ccc(C(=O)O)cc2)cc1 [Compound 2] | 126% | 
CCCCCc1ccc(-c2ccc(C(=O)O)cc2)cc1 [Compound 4] | 44% | 
CCCCCCCCc1ccc(-c2ccc(C(=O)O)cc2)cc1 [Compound 6] | 104% | 
CCCCCCCCc1ccc(-c2ccc(C(=O)n3ccnc3)cc2)cc1 [Compound 8] | 79% | 7.66
CCCCCCCc1ccc(-c2ccc(C(=O)O)cc2)cc1 [Compound 9] | 76% | 
CCCCCCCc1ccc(-c2ccc(C(=O)O)cc2)cc1 [Compound 10] | 64% | 
CCCCCCOc1cc(C)c(-c2ccc(C(=O)O)cc2)cc1C [Compound 11] | 78% | 
CCCCCCOc1ccc(-c2ccc(C(=O)O)cc2)cc1 [Compound 12] | 72% | 
CCCCCCNC(=O)COc1nc(-c2ccc(C(=O)O)cc2)sc1C [Compound 13] | 85% | 
CCCCCCCCc1ccc(-c2ccc(C(=O)n3cnc(NC(C)=O)n3)cc2)cc1 [Compound 15] | 76% | 
CCCCCCc1ccc(-c2ccc(C(=O)O)cc2)cc1 [Compound 16] | 37% | 
CCCCOCCOc1ccc(-c2ccc(C(=O)O)cc2)cc1 [Compound 18] | 108% | 
CCCCCCCCCCOc1ccc(-c2ccc(C(=O)O)cc2)cc1 [Compound 20] | 98% | 
CCCCCCCc1ccc(-c2ccc(C(=O)O)cc2F)cc1 [Compound 22] | 36% | 
CCCCCCCOc1ccc(-c2ccc(C(=O)O)cc2)cc1 [Compound 24] | 58% | 
CC(C)CCCCOc1ccc(-c2ccc(C(=O)O)cc2)cc1 [Compound 25] | 65% | 
CCCCc1ccc(-c2ccc(C(=O)O)cc2)cc1 [Compound 26] | 36% | 7.15
CCCCOCCOc1nc(-c2ccc(C(=O)O)cc2)sc1C [Compound 27] | 95% | 
CCCCCCCCc1ccc(-c2ccc(C(=O)Nc3ccc(C)cn3)cc2)cc1 [Compound 29] | 78% | 
CCCCCCCCc1ccc(-c2ccc(C(=O)C(=O)O)cc2)cc1 [Compound 31] | 80% | 
CCCCCCCCOc1ccc(-c2ccc(C(=O)O)cc2)cc1 [Compound 32] | 70% | 
CCCOCCOc1nc(-c2ccc(C(=O)O)cc2)sc1C [Compound 33] | 98% | 
CCCCCCCCc1ccc(-c2ccc(C(=O)O)cc2)cc1 [Compound 35] | 83% | 

SMILES | % Eff. | pEC50
CCCCCCCc1ccc(-c2ccc(C(=O)O)c(F)c2)cc1 [Compound 36] | 42% | 
CCCCCCCc1ccc(-c2ccc(C(=O)NO)cc2)cc1 [Compound 37] | 49% | 
CCCCCCCCc1ccc(-c2ccc(C(=O)O)cc2F)cc1 [Compound 38] | 70% | 6.81
CCCCOCCOc1cc(C)c(-c2ccc(C(=O)O)cc2)cc1C [Compound 44] | 41% | 
CCCCCCCc1ccc(-c2ccc(C(=O)NN)cc2)cc1 [Compound 45] | 78% | 
CCCCC(CC)COc1nc(-c2ccc(C(=O)O)cc2)sc1C (stereo not drawn) [Compound 46] | 54% | 
O=C(O)c1ccc(-c2ccc(OCCC=C(C3CC3)C3CC3)cc2)cc1 [Compound 47] | 58% | 
CCCC1CCCC(c2ccc(-c3ccc(C(=O)O)cc3)cc2)CC1 (stereo not drawn) [Compound 49] | 59% | 
CCCCCCCCN1CCN(c2ccc(C(=O)O)cc2)CC1 [Compound 50] | 85% | 
CCCCCCCCOc1ccc(-c2ccc(C(=O)NCCC#N)cc2)cc1 [Compound 51] | 59% | 
CCCCCCCc1ccc(-c2ccc(C(=O)O)c(C)c2)cc1 [Compound 52] | 45% | 6.41
CCCCCCCCc1ccc(-c2ccc(C(=O)O)cc2)cc1 [Compound 53] | 99% | 
CCCCCCCCOc1ccc(-c2ccc(C(=O)NCCc3ccccn3)cc2)cc1 [Compound 54] | 39% | 
CCCCCCCCc1ccc(-c2ccc(C(=O)O)c(C)c2)cc1 [Compound 55] | 84% | 
Cc1sc(-c2ccc(C(=O)O)cc2)nc1OCC(=O)NC1CCCCCC1 [Compound 56] | 105% | 
Cc1sc(-c2ccc(C(=O)O)cc2)nc1OCC(=O)NC(C)CCC(C)C (stereo not drawn) [Compound 57] | 77% | 
Cc1sc(-c2ccc(C(=O)O)cc2)nc1OCC(=O)NC1CCC(C)CC1 (stereo not drawn) [Compound 58] | 66% | 
CCCCCCCc1ccc(-c2ccc(C(=O)NCCc3ccccn3)cc2)cc1 [Compound 59] | 35% | 
CCCCCCCCc1ccc(-c2ccc(C(=O)NS(C)(=O)=O)cc2)cc1 [Compound 60] | 51% | 
Cc1sc(-c2ccc(C(=O)O)cc2)nc1OCC(=O)NC1CCCC1 [Compound 61] | 39% | 
CCCCNC(=O)COc1nc(-c2ccc(C(=O)O)cc2)sc1C [Compound 62] | 37% | 
CCCCCCc1ccc(-c2ccc(C(=O)Nc3ccc(C)cn3)cc2)cc1 [Compound 63] | 36% | 

system: mouse ES cells (RARβ, Cyp26a1 transcripts); experiment: RT-PCR of RA-responsive genes in WT and RARβ KO ES cells; format: cell-based; conditions: WT ES cells, presence of RA vs untreated
Description: C57BL/6 RARβ heterozygous mice were provided by Dr. Pierre Chambon (Strasbourg-Cedex, France) (26). Homozygous RARβ-null mice were obtained following mating of RARβ heterozygous mice. Blastocysts were harvested on day E3.5 and individually cultured on ES cell medium as previously described (28).
Various markers for endodermal (day 5), pancreatic progenitor (day 11), endocrine progenitor (day 14) and endocrine (day 17) differentiation were analyzed by semi-quantitative RT-PCR in J1 wild-type and RARβ KO ESCs. Primers were designed around introns whenever possible. Total RNA extraction, semi-quantitative and quantitative PCR reactions were performed as previously described (18). Amplified PCR products were resolved on 1.5% agarose gels and visualized by staining with ethidium bromide. PCR bands were sequenced for verification of the correct amplicon. Quantitation of semi-quantitative gels was performed using ImageJ software (National Institutes of Health) from three experimental biological repeats.

SMILES | RARβ signal (RT-PCR)
CC1=C(/C=C/C(C)=C/C=C/C(C)=C/C(=O)O)C(C)(C)CCC1 [RA, all trans-retinoic acid] | stronger RARβ signal

same assay, conditions: WT and RARβ KO ES cells, RA-treated

SMILES | Cyp26a1 expression (RT-PCR)
CC1=C(/C=C/C(C)=C/C=C/C(C)=C/C(=O)O)C(C)(C)CCC1 [RA, all trans-retinoic acid] | observed in both WT and RARβ KO ES cells
